From patent US20080210905A1, “ORGANIC-ELECTROLUMINESCENCE-MATERIAL-CONTAINING SOLUTION, METHOD FOR SYNTHESIZING ORGANIC ELECTROLUMINESCENCE MATERIAL, COMPOUND SYNTHESIZED BY THE METHOD, METHOD FOR FORMING THIN FILM OF ORGANIC ELECTROLUMINESCENCE MATERIAL, THIN FILM OF ORGANIC ELECTROLUMINESCENCE MATERIAL AND ORGANIC …” (Idemitsu Kosan Co., Ltd., priority 2006, published 2008)

Tests used:
[1] = Solubility of compound (a) in toluene, evaluated in advance; type: physicochemical
[2] = Solubility evaluation: compound stirred in toluene, visual check for insoluble matter; type: physicochemical; settings: for Presence of insoluble matter: 0.01 g of anthracene compound and 1 g of toluene, stirred, visual check; for solubility in toluene: concluded from visual check of 0.01 g compound in 1 g toluene
Excerpt: In order to evaluate a relationship between the soluble portion B and the solubility, how the solubility was changed depending on the bonding number U of the solubility portion B was examined.
As the compound, an anthracene compound as represented by the following formula was used.
A solubility portion B of the compound was structured as represented by the formula (3), and the bonding number of the solubility portion is represented by (a).
With the above structure, compounds respectively having bonding numbers (a) of 1, 2, 3 and 6 were synthesized.
Then, 0.01 g of the anthracene compound and 1 g of toluene were put into a glass bottle to be stirred.
Whether or not any insoluble matter was present in the solution was observed by a visual check.
In order to evaluate a relationship between unit(s) structuring the soluble portion B and the solubility, how the solubility was changed depending on the structure of the solubility portion B was examined.
Compounds used in the examination were AN-1, AN-3, AN-4 and an-1.
For evaluation of the solubility, as in the solubility evaluation 1, 0.01 g of the anthracene compound and 1 g of toluene were put into a glass bottle to be stirred. Then, whether or not any insoluble matter was present in the solution was observed by a visual check.

| solubility in toluene [1] [wt %] | Presence of insoluble matter [2] | solubility in toluene [2] [wt %] | Compound |
| --- | --- | --- | --- |
| 10 | – | – | c1ccc(-c2ccccc2-c2ccc3c(-c4ccccc4)c4ccccc4c(-c4ccccc4)c3c2)cc1 [compound (a)] |
| – | no insoluble matter present | ≥ 1 | c1ccc(-c2ccc(-c3cccc(-c4cccc(-c5cccc(-c6cccc(-c7cccc(-c8c9ccccc9c(-c9ccc%10ccccc%10c9)c9ccccc89)c7)c6)c5)c4)c3)cc2)cc1 [AN-4] |
| – | no insoluble matter present | ≥ 1 | c1ccc(-c2cccc(-c3ccc(-c4ccc(-c5cccc(-c6cccc(-c7cccc(-c8c9ccccc9c(-c9ccc%10ccccc%10c9)c9ccccc89)c7)c6)c5)cc4)cc3)c2)cc1 [AN-3] |
